Series [1] deals with vincristine induced neuropathy. The experiment in a line: Walking test (motor coordination) in vincristine-treated rats. The format is in vivo, rat. The following applies: IL-6 0.3, 1, 3, 10 μg/kg SC daily; 2 and 3 weeks. The method, then: The motor coordination was assessed using walking test, which consists at measuring the time taken by a rat placed at one extremity of a 100 cm-long horizontal wooden rod of 5.5 cm diameter, 40 cm above the table, to cover a distance of 1 m on this rod. Three tests (maximum duration: 60 s each) were performed, and the mean value was calculated and retained as characteristic value. If the animal fell down, it was scored with a maximum of 60 s.

Series [2] concerns vincristine induced neuropathy. The experiment in a line: Morphometric analysis of sciatic nerve in vincristine-treated rats. Format: in vivo, rat. The protocol: Histomorphometric analyses were carried out as described in Example 18 at the completion of the experiments, to explore morphologic changes occurring in fiber and axon diameter and myelin thickness in rats treated with vincristine and in rats co-administrated with IL-6.
With vincristine, morphometric analysis was performed 2 week after the end of vincristine administration on 3 animals per group. The animals were anesthetized by IP injection of 100 mg/kg Imalgène 500®. A 5 mm segment of sciatic nerve was excised, fixed overnight with 4% glutaraldehyde (Sigma, L'Isle d'Abeau-Chesnes, France) in phosphate buffered saline (PBS) (pH=7.4) and maintained in 30% sucrose and stored at 4° C. until further processing. At the time of use, the nerve sample was post-fixed in 1% osmium tetroxide (Sigma, L'Isle d'Abeau-Chesnes, France) in PBS for 2 h, dehydrated in serial alcohol solution, and embedded in Epon. Embedded tissues were then placed at 70° C. during 3 days to allow polymerization of the tissue wax. Cross sections of 1.5 μm thick were performed and they were stained with a 1% toluidine blue solution (Sigma, L'Isle d'Abeau-Chesnes, France) for 2 min, dehydrated and mounted on Eukitt. Twelve sections per sample were examined using an optical microscope (Nikon, Tokyo, Japan) and analyzed using, a semi-automated digital image analysis software (Biocom, France). The fiber diameter (a), axon diameter (b), and myelin thickness (c) were measured as illustrated below.

The test system of series [3] is vincristine induced neuropathy. As to the kind of experiment: Hindpaw skin biopsy, density of dermal nerve fibers in vincristine-treated rats. The format is in vivo, rat. Conditions: IL-6 10 μg/kg.
Protocol: A 5-10 mm diameter area of skin was punch-biopsied from the hindpaw. Skin samples were immediately fixed overnight in paraformaldehyde at 4° C., incubated (overnight) in 30% sucrose in 0.1 M PBS for cryoprotection, embedded in OCT and frozen at −80° C. until cryocut. 50 μm-thick cryosections were then cut vertical to the skin surface with a cryostat. Free-floating sections were incubated for 7 days in a bath of rabbit anti-protein gene product 9.5 (1:10000; Ultraclone, Isle of Man, UK) at 4° C. The sections were then processed to reveal immunoreactivity according to the ABC peroxidase method. Briefly, they were incubated in for 1 hr with biotinylated anti-goat antibody (1:200), then 30 min in the avidin biotinylated complex at room temperature. Peroxidase activity was visualized using DAB system. Sections were then counterstained with eosin or hematoxylin. Sections were dehydrated, cleared with bioclear and mounted on eukitt. The number of dermal nerves of 3 microscope fields was counted manually under 40 magnification view.
Series [4] concerns Hybridoma growth factor (HGF) activity. The experiment in a line: Hybridoma growth factor (HGF) activity of IL-6. Conditions: based on Hybridoma growth factor (HGF) activity. The format is cell-based. From the text: Recombinant human IL-6 (r-hlL-6) is produced in genetically engineered Chinese Hamster Ovary (CHO) cells. The production process begins with the growth and expansion of cells from a working cell bank (WCB) and continues under conditions where r-hlL-6 is secreted into the culture medium. The r-hlL-6 was harvested and purified from culture medium of the engineered cells.

The conditions of series [5]: patients with myelodysplastic syndromes and trombocytopenia; cited from earlier work.
The conditions of series [6]: rodents; cited from earlier work.
The conditions of series [7]: monkeys; cited from earlier work.

The text below walks through data of US7951359B2, “Compositions and methods for therapy or prevention of chemotherapy-induced neuropathy” (Merck Serono SA, priority 2004, dated 2011).

Where two headings read alike, the source gives them in different places.

Take “IL-6: Recombinant human IL-6 produced in genetically engineered Chinese Hamster Ovary (CHO) cells”: in series [1], the “walking test, time to traverse the rod versus vincristine alone” value is “traversed the rod faster”. Moreover, in series [2] (IL-6 0.3-10 μg/kg SC daily), the “decrease in axon diameter by vincristine” value was “significantly reduced/prevented the decrease in axon diameter” and the “percentage of degenerated fibers in vincristine treated rats” value is given as “decreased the percentage of degenerated fibers”. In series [2] (IL-6 1-10 μg/kg SC daily), the vincristine-induced fiber shrinkage result is on record as “prevented vincristine-induced fiber shrinkage” and the vincristine-induced myelin loss result is “reduced/prevented vincristine-induced myelin loss”. Further, the “dermal fiber loss by vincristine” value in series [3] was “fully prevented”. Further, in series [4], the potency is on record as 23.3×10^6 IU/ml. Besides, in series [5], the maximum dose tolerated is 3.75 µg/kg/day. Besides, the “active dose as thrombopoietic factor” value in series [6] is recorded as “above 500 μg/kg”. Besides, the “active dose as thrombopoietic factor” value in series [7] was 0.01 mg/kg.
